Test results as given in patent US20100179093A1, “Neoropeptide-2-Receptor (Y-2R) Agonists” (priority 2008, published 2010).
Where two headings read alike, the source gives them in different places.

Columns and labels:
Assay type in all cases: cell-based
Y1R = target: T1, Y1R (Homo sapiens, UniProt P25929); assay: CaFlux Assay (FLIPR), Y1R
T1 sequence (P25929 1-384): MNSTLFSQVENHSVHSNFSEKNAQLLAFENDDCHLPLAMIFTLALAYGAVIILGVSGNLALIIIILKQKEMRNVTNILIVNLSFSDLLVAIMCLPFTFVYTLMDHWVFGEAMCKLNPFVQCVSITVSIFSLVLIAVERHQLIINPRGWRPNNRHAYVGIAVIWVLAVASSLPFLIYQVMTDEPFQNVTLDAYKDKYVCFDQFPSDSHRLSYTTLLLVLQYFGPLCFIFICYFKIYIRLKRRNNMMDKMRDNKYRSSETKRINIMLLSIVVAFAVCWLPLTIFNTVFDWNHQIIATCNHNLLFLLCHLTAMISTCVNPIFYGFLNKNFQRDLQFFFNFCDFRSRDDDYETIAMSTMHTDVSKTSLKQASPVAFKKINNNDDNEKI

Y4R = Y4R (Homo sapiens, UniProt P50391); assay: CaFlux Assay (FLIPR), Y4R
Y5R = target: T2, Y5R (Homo sapiens, UniProt Q15761); assay: CaFlux Assay (FLIPR), Y5R; details: for Emax: read-out: Y5R FLIPR, percentage in parentheses under the EC50;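 as to Emax: percent of the maximal response of the positive control agonist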
T2 sequence (Q15761 1-445): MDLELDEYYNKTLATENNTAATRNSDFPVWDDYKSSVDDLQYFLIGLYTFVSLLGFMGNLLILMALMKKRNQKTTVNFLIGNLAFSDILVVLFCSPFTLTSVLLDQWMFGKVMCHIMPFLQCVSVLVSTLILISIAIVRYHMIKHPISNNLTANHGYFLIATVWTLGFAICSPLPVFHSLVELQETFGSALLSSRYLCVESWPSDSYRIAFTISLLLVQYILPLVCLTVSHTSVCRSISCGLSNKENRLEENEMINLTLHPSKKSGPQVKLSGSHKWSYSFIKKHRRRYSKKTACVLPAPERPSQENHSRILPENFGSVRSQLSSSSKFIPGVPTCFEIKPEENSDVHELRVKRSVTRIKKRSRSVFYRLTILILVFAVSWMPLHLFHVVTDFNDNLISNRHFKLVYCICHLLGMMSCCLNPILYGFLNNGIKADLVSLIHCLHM

hNPY2R [1] = target: T3, hNPY2R (Homo sapiens, UniProt P49146); assay: cAMP Agonist Assay, HEK293/hNPY2R cells; parameters: expressed in transfected cells; host or cells: HEK293/hNPY2R (G418 selection)
T3 sequence (P49146 1-381): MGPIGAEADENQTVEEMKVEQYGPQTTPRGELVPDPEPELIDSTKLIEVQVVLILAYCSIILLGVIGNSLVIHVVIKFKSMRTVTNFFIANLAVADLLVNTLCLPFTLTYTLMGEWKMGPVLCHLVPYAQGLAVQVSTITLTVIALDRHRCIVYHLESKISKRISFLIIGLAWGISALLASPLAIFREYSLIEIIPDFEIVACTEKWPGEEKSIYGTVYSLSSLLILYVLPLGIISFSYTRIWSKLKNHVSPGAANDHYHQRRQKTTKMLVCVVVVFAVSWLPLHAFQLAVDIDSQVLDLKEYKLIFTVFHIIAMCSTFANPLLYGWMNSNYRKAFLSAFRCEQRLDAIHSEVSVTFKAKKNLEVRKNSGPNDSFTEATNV
Experimental: On the first day, medium was discarded, and the monolayer cells were washed with 10 mL PBS per flask (T225). […] The flask was gently tapped and the cell suspension was pooled. Each flask was rinsed with 10 mL plating medium and centrifuged at 1000 rpm for 5 min. The suspension was pooled and counted. The suspension was resuspended in plating medium at a density of 2.0×10^5 cells/mL for HEK293/hNPY2R. 50 microliters of cells (HEK293/hNPY2R-10,000 cells/well) were transferred into the 384-well plate using Multi-drop dispenser. The plates were incubated at 37° C. overnight. […] The media and reagents were allowed to come to room temperature. Before the dilutions were prepared, the stock solution of stimulating compound in dimethyl sulphoxide (DMSO, Sigma, cat #D2650) was allowed to warm up to 32 C for 5-10 min. […] The cell medium was tapped off with a gentle inversion of the cell plate on a paper towel. 50 μL of stimulation medium was placed per well (each concentration done in four replicates). The plates were incubated at room temperature for 30 min, and the cells were checked under a microscope for toxicity. After 30 minutes of treatment, the stimulation media was discarded and 50 mL/well of Assay Lysis Buffer (provided in the Tropix kit) was added. The plates were incubated for 45 min@37° C. 20 μL of the lysate was transferred from stimulation plates into the pre-coated antibody plates (384-well) from the Tropix kit. 10 μL of AP conjugate and 20 μL of anti-cAMP antibody was added. The plates were incubated at room temperature while shaking for 1 hour. The plates were then washed 5 times with Wash Buffer, 70 μL per well for each wash. The plates were tapped to dry. 30 μL/well of CSPD/Saphire-II RTU substrate/enhancer solution was added and incubated for 45 min @ RT (shake). Signal for 1 sec/well in a Luminometer.

hNPY2R [2] = target: T3, hNPY2R; assay: CaFlux Assay (FLIPR), Y2R; parameters: expressed in transfected cells; host or cells: HEK-293 stably expressing G protein chimera Gaqi9
Experimental: Hek-293 cells were stably transfected with the G protein chimera Gaqi9 and the hygromycin-B resistance gene were further transfected with the human NPY2 receptor and G418 antibiotic selection. Following selection in both hygromycin-B and G418, individual clones were assayed for their response to PYY. The transfected cells were cultured in DMEM medium supplemented with 10% fetal bovine serum, 50 μg/mL hygromycin-B 2 mM glutamine, 100 U/mL penicillin, 100 μg/mL streptomycin and 250 μg/mL G418. Cells are harvested with trypsin-EDTA and counted using ViaCount reagent. The cell suspension volume is adjusted to 4.8×10^5 cells/mL with complete growth media. Aliquots of 25 μL are dispensed into 384 well Poly-D Lysine coated black/clear microplates (Falcon) and the microplates were placed in a 37° C. CO2 incubator overnight. Loading Buffer (Calcium-3 Assay Kit, Molecular Devices) was prepared by dissolving the contents of one vial (Express Kit) into 1000 mL Hank's Balanced Salt Solution containing 20 mM HEPES and 5 mM probenecid. Aliquots of 25 μL of diluted dye were dispensed into the cell plates and the plates are then incubated for 1 hour at 37° C. During the incubation, test compounds were prepared at 3.5× the desired concentration in HBSS (20 mM HEPES)/0.05% BSA/1% DMSO and transferred to a 384 well plate for use on FLIPR. After incubation, both the cell and compound plates were brought to the FLIPR and 20 μL of the diluted compounds were transferred to the cell plates by the FLIPR. During the assay, fluorescence readings were taken simultaneously from all 384 wells of the cell plate every 1.5 seconds. Five readings were taken to establish a stable baseline, and then 20 μL of sample was rapidly (30 μL/sec) and simultaneously added to each well of the cell plate. The fluorescence was continuously monitored before, during and after sample addition for a total elapsed time of 100 seconds. Responses (increase in peak fluorescence) in each well following addition were determined. The initial fluorescence reading from each well, prior to ligand stimulation, was used as a zero baseline value for the data from that well. The responses are expressed as % of maximal response of the positive control.

Y4R, sequence (P50391 whole entry): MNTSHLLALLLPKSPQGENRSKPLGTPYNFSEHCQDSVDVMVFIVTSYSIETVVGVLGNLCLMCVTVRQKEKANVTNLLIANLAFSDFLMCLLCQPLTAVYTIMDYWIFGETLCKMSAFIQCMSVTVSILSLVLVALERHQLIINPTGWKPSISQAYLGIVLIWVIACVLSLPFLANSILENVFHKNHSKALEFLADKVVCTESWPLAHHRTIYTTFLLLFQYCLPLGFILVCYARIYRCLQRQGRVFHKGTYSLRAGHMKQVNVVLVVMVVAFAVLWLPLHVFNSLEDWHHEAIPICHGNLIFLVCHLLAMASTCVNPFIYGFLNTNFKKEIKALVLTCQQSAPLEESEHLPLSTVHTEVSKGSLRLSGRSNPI

CCCCCCCCCCCCCCCC(=O)NCCCCCC(=O)N[C@H](C(=O)N[C@@H](CCCCN)C(=O)N1CCN(c2ccc3ncn(CC(=O)N[C@@H](CCCNC(=N)N)C(=O)N[C@@H](Cc4c[nH]cn4)C(=O)N[C@@H](Cc4ccc(O)cc4)C(=O)N[C@@H](CC(C)C)C(=O)N[C@@H](CC(N)=O)C(=O)N[C@@H](Cc4c[nH]c5ccccc45)C(=O)N[C@H](C(=O)N[C@H](C(=O)N[C@@H](CCCNC(=N)N)C(=O)N[C@@H](CCC(N)=O)C(=O)N(C)[C@@H](CCCNC(=N)N)C(=O)N[C@@H](Cc4ccc(O)cc4)C(N)=O)[C@@H](C)O)C(C)C)c(=O)c3c2)CC1)[C@@H](C)CC [Example 16]
EC50 (Y1R): > 5000 nM | EC50 (Y4R): 13700 nM | EC50 (Y5R): 544 nM | EC50 (hNPY2R [1]): 0.23 nM | EC50 (hNPY2R [2]): 0.18 nM

CCCCCCCCCCCCCCCC(=O)NCCCCCC(=O)N[C@H](C(=O)N[C@@H](CCCCN)C(=O)N1CCN(c2ccc3ncn(CC(=O)N[C@@H](CCCNC(=N)N)C(=O)N[C@@H](Cc4c[nH]cn4)C(=O)N[C@@H](Cc4ccc(O)cc4)C(=O)N[C@@H](CC(C)C)C(=O)N[C@@H](CC(N)=O)C(=O)N[C@@H](Cc4c[nH]c5ccccc45)C(=O)N[C@H](C(=O)N[C@H](C(=O)N[C@@H](CCCNC(=N)N)C(=O)N[C@@H](CCC(N)=O)C(=O)N[C@@H](CCCNC(=N)N)C(=O)N[C@@H](Cc4ccc(O)cc4)C(N)=O)[C@@H](C)O)C(C)C)c(=O)c3c2)CC1)[C@@H](C)CC [Example 17]
EC50 (Y1R): > 5000 nM | EC50 (Y4R): 14500 nM | EC50 (Y5R): 27 nM | EC50 (hNPY2R [1]): 0.25 nM | EC50 (hNPY2R [2]): 0.09 nM

CCCCCCCCCCCCCCCC(=O)NCCCCCC(=O)NCCCC[C@H](NC(=O)[C@@H](N)[C@@H](C)CC)C(=O)N1CCN(c2ccc3ncn(CC(=O)N[C@@H](CCCNC(=N)N)C(=O)N[C@@H](Cc4c[nH]cn4)C(=O)N[C@@H](Cc4ccc(O)cc4)C(=O)N[C@@H](CC(C)C)C(=O)N[C@@H](CC(N)=O)C(=O)N[C@@H](Cc4c[nH]c5ccccc45)C(=O)N[C@H](C(=O)N[C@H](C(=O)N[C@@H](CCCNC(=N)N)C(=O)N[C@@H](CCC(N)=O)C(=O)N(C)[C@@H](CCCNC(=N)N)C(=O)N[C@@H](Cc4ccc(O)cc4)C(N)=O)[C@@H](C)O)C(C)C)c(=O)c3c2)CC1 [Example 18]
EC50 (Y1R): > 5000 nM | EC50 (Y4R): > 5000 nM | EC50 (Y5R): 1190 nM | EC50 (hNPY2R [1]): 0.18 nM | EC50 (hNPY2R [2]): 0.012 nM

CCCCCCCCCCCCCCCC(=O)NCCCCCC(=O)NCCCC[C@H](NC(=O)[C@@H](N)[C@@H](C)CC)C(=O)N1CCN(c2ccc3ncn(CC(=O)N[C@@H](CCCNC(=N)N)C(=O)N[C@@H](Cc4c[nH]cn4)C(=O)N[C@@H](Cc4ccc(O)cc4)C(=O)N[C@@H](CC(C)C)C(=O)N[C@@H](CC(N)=O)C(=O)N[C@@H](Cc4c[nH]c5ccccc45)C(=O)N[C@H](C(=O)N[C@H](C(=O)N[C@@H](CCCNC(=N)N)C(=O)N[C@@H](CCC(N)=O)C(=O)N[C@@H](CCCNC(=N)N)C(=O)N[C@@H](Cc4ccc(O)cc4)C(N)=O)[C@@H](C)O)C(C)C)c(=O)c3c2)CC1 [Example 19]
EC50 (Y1R): > 5000 nM | EC50 (Y4R): > 5000 nM | EC50 (Y5R): 45 nM | EC50 (hNPY2R [1]): 0.15 nM | EC50 (hNPY2R [2]): 0.004 nM

CCCCCCCCCCCCCCCC(=O)NCCC(=O)NCCCC[C@H](NC(=O)[C@@H](N)[C@@H](C)CC)C(=O)N1CCN(c2ccc3ncn(CC(=O)N[C@@H](CCCNC(=N)N)C(=O)N[C@@H](Cc4c[nH]cn4)C(=O)N[C@@H](Cc4ccc(O)cc4)C(=O)N[C@@H](CC(C)C)C(=O)N[C@@H](CC(N)=O)C(=O)N[C@@H](Cc4c[nH]c5ccccc45)C(=O)N[C@H](C(=O)N[C@H](C(=O)N[C@@H](CCCNC(=N)N)C(=O)N[C@@H](CCC(N)=O)C(=O)N(C)[C@@H](CCCNC(=N)N)C(=O)N[C@@H](Cc4ccc(O)cc4)C(N)=O)[C@@H](C)O)C(C)C)c(=O)c3c2)CC1 [Example 20]
EC50 (Y1R): > 5000 nM | EC50 (Y4R): > 5000 nM | EC50 (Y5R): 1880 nM | EC50 (hNPY2R [1]): 0.26 nM | EC50 (hNPY2R [2]): 0.015 nM

CCCCCCCCCCCCCCCC(=O)N[C@@H](CCC(=O)O)C(=O)NCCCC[C@H](NC(=O)[C@@H](N)[C@@H](C)CC)C(=O)N1CCN(c2ccc3ncn(CC(=O)N[C@@H](CCCNC(=N)N)C(=O)N[C@@H](Cc4c[nH]cn4)C(=O)N[C@@H](Cc4ccc(O)cc4)C(=O)N[C@@H](CC(C)C)C(=O)N[C@@H](CC(N)=O)C(=O)N[C@@H](Cc4c[nH]c5ccccc45)C(=O)N[C@H](C(=O)N[C@H](C(=O)N[C@@H](CCCNC(=N)N)C(=O)N[C@@H](CCC(N)=O)C(=O)N(C)[C@@H](CCCNC(=N)N)C(=O)N[C@@H](Cc4ccc(O)cc4)C(N)=O)[C@@H](C)O)C(C)C)c(=O)c3c2)CC1 [Example 21]
EC50 (Y1R): > 5000 nM | EC50 (Y4R): > 5000 nM | EC50 (Y5R): 4180 nM | EC50 (hNPY2R [1]): 1 nM | EC50 (hNPY2R [2]): 0.43 nM

CCCCCCCCCCCCCCCC(=O)N[C@@H](CCC(=O)O)C(=O)N[C@@H](CCC(=O)O)C(=O)NCCCC[C@H](NC(=O)[C@@H](N)[C@@H](C)CC)C(=O)N1CCN(c2ccc3ncn(CC(=O)N[C@@H](CCCNC(=N)N)C(=O)N[C@@H](Cc4c[nH]cn4)C(=O)N[C@@H](Cc4ccc(O)cc4)C(=O)N[C@@H](CC(C)C)C(=O)N[C@@H](CC(N)=O)C(=O)N[C@@H](Cc4c[nH]c5ccccc45)C(=O)N[C@H](C(=O)N[C@H](C(=O)N[C@@H](CCCNC(=N)N)C(=O)N[C@@H](CCC(N)=O)C(=O)N(C)[C@@H](CCCNC(=N)N)C(=O)N[C@@H](Cc4ccc(O)cc4)C(N)=O)[C@@H](C)O)C(C)C)c(=O)c3c2)CC1 [Example 23]
EC50 (Y1R; FLIPR, read-out: Y1R EC50 (nM) FLIPR): > 5000 nM | EC50 (Y4R; FLIPR, read-out: Y4R EC50 (nM) FLIPR): > 5000 nM | EC50 (Y5R; FLIPR, read-out: Y5R EC50 (nM) FLIPR): 459 nM | Emax (Y5R): 70% | EC50 (hNPY2R [1]; HEK293/hNPY2R, Forskolin 5 μM, read-out: Y2R EC50 (nM) cAMP): 0.29 nM | EC50 (hNPY2R [2]; FLIPR calcium flux, Hek-293 cells with Gaqi9 and human NPY2 receptor, read-out: Y2R EC50 (nM) FLIRR): 0.033 nM

CCCCCCCCCCCCCCCC(=O)N[C@@H](CCC(=O)NCCCC[C@H](NC(=O)[C@@H](N)[C@@H](C)CC)C(=O)N1CCN(c2ccc3ncn(CC(=O)N[C@@H](CCCNC(=N)N)C(=O)N[C@@H](Cc4c[nH]cn4)C(=O)N[C@@H](Cc4ccc(O)cc4)C(=O)N[C@@H](CC(C)C)C(=O)N[C@@H](CC(N)=O)C(=O)N[C@@H](Cc4c[nH]c5ccccc45)C(=O)N[C@H](C(=O)N[C@H](C(=O)N[C@@H](CCCNC(=N)N)C(=O)N[C@@H](CCC(N)=O)C(=O)N(C)[C@@H](CCCNC(=N)N)C(=O)N[C@@H](Cc4ccc(O)cc4)C(N)=O)[C@@H](C)O)C(C)C)c(=O)c3c2)CC1)C(=O)O [Example 24]
EC50 (Y1R): > 5000 nM | EC50 (Y4R): > 5000 nM | EC50 (Y5R): 168 nM | Emax (Y5R): 70% | EC50 (hNPY2R [1]): 0.21 nM | EC50 (hNPY2R [2]): 0.039 nM

CCCCCCCCCCCCCCCC(=O)N[C@@H](CCC(=O)N[C@@H](CCC(=O)NCCCC[C@H](NC(=O)[C@@H](N)[C@@H](C)CC)C(=O)N1CCN(c2ccc3ncn(CC(=O)N[C@@H](CCCNC(=N)N)C(=O)N[C@@H](Cc4c[nH]cn4)C(=O)N[C@@H](Cc4ccc(O)cc4)C(=O)N[C@@H](CC(C)C)C(=O)N[C@@H](CC(N)=O)C(=O)N[C@@H](Cc4c[nH]c5ccccc45)C(=O)N[C@H](C(=O)N[C@H](C(=O)N[C@@H](CCCNC(=N)N)C(=O)N[C@@H](CCC(N)=O)C(=O)N(C)[C@@H](CCCNC(=N)N)C(=O)N[C@@H](Cc4ccc(O)cc4)C(N)=O)[C@@H](C)O)C(C)C)c(=O)c3c2)CC1)C(=O)O)C(=O)O [Example 25]
EC50 (Y1R): > 5000 nM | EC50 (Y4R): > 5000 nM | EC50 (Y5R): 443 nM | Emax (Y5R): 70% | EC50 (hNPY2R [1]): 0.22 nM | EC50 (hNPY2R [2]): 0.08 nM
